Assay results reported in the supplement of paper PMC11061612.

What was measured:
Paclitaxel = compound: CC(=O)O[C@H]1C(=O)[C@@]2(C)[C@H]([C@H](OC(=O)c3ccccc3)[C@]3(O)C[C@H](OC(=O)[C@H](O)[C@@H](NC(=O)c4ccccc4)c4ccccc4)C(C)=C1C3(C)C)[C@]1(OC(C)=O)CO[C@@H]1C[C@@H]2O [Paclitaxel]; conditions: max 3 µM
Summary of the method: (§1)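 Plates with 1536 wells received cancer cell lines in 7.5 μl of DMEM/F12 or RPMI containing 10% FBS. After 24 hours at 37°C and 5% CO2, cells were dosed for 72 hours with final DMSO typically 0.2%, and viability was read by CellTiter-Glo 2.0 luminescence scaled between blank-well and DMSO-well means. The single-agent IC50 was taken from a logistic fit of the dose responses made with a non-linear mixed effects model, that logistic curve having two parameters.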

AZD4320 = compound: CN(CC[C@H](CSC1=CC=CC=C1)NC2=C(C=C(C=C2)S(=O)(=O)NC(=O)C3=CC=C(C=C3)N4CCC(CC4)[C@H](C5=CC=CC=C5C6=CC=C(C=C6)Cl)O)S(=O)(=O)C(F)(F)F)CCO [AZD4320]; conditions: max 1 µM
Summary of the method: as §1

5-Fluorouracil = compound: O=c1[nH]cc(F)c(=O)[nH]1 [5-Fluorouracil]; conditions: max 20 µM
Summary of the method: as §1

AZD1775 = compound: C=CCn1c(=O)c2cnc(Nc3ccc(N4CCN(C)CC4)cc3)nc2n1-c1cccc(C(C)(C)O)n1 [AZD1775]; conditions: max 3 µM
Summary of the method: as §1

MK-2206 = compound: NC1(c2ccc(-c3nc4ccn5c(=O)[nH]nc5c4cc3-c3ccccc3)cc2)CCC1 [MK-2206]; conditions: max 10 µM
Summary of the method: as §1

AZD0156 = compound: CN(C)CCCOc1ccc(-c2ccc3ncc4c(c3c2)n(C2CCOCC2)c(=O)n4C)cn1 [AZD0156]; conditions: max 3 µM
Summary of the method: as §1

Doxorubicin = compound: COc1cccc2c1C(=O)c1c(O)c3c(c(O)c1C2=O)C[C@@](O)(C(=O)CO)C[C@@H]3O[C@H]1C[C@H](N)[C@H](O)[C@H](C)O1 [Doxorubicin]; conditions: max 1 µM
Summary of the method: as §1

AZD5991 = compound: Cc1c2c(nn1C)CSCc1cc(n(C)n1)CSc1cc(c3ccccc3c1)OCCCc1c(C(=O)O)n(C)c3c-2c(Cl)ccc13 [AZD5991]; conditions: max 1 µM
Summary of the method: as §1

Savolitinib = compound: C[C@@H](c1ccc2nccn2c1)n1nnc2ncc(-c3cnn(C)c3)nc21 [Savolitinib]; conditions: max 1 µM
Summary of the method: as §1

SN-38 = compound: CCc1c2c(nc3ccc(O)cc13)-c1cc3c(c(=O)n1C2)COC(=O)[C@]3(O)CC [SN-38]; conditions: max 0.3 µM
Summary of the method: as §1

Gemcitabine = compound: Nc1ccn([C@@H]2O[C@H](CO)[C@@H](O)C2(F)F)c(=O)n1 [Gemcitabine]; conditions: max 0.3 µM
Summary of the method: as §1

Crizotinib = compound: C[C@@H](Oc1cc(-c2cnn(C3CCNCC3)c2)cnc1N)c1c(Cl)ccc(F)c1Cl [Crizotinib]; conditions: max 10 µM
Summary of the method: as §1

SG3199 = compound: CC1=CN2[C@@H](C1)C=NC3=CC(=C(C=C3C2=O)OC)OCCCCCOC4=C(C=C5C(=C4)N=C[C@@H]6CC(=CN6C5=O)C)OC [SG3199]; conditions: max 0.001 µM
Summary of the method: as §1

Venetoclax = compound: CC1(C)CCC(CN2CCN(c3ccc(C(=O)NS(=O)(=O)c4ccc(NCC5CCOCC5)c([N+](=O)[O-])c4)c(Oc4cnc5[nH]ccc5c4)c3)CC2)=C(c2ccc(Cl)cc2)C1 [Venetoclax]; conditions: max 1 µM
Summary of the method: as §1

Palbociclib = compound: CC(=O)c1c(C)c2cnc(Nc3ccc(N4CCNCC4)cn3)nc2n(C2CCCC2)c1=O [Palbociclib]; conditions: max 10 µM
Summary of the method: as §1

Prexasertib = compound: COc1cccc(OCCCN)c1-c1cc(Nc2cnc(C#N)cn2)n[nH]1 [Prexasertib]; conditions: max 1 µM
Summary of the method: as §1

Etoposide = compound: COc1cc([C@@H]2c3cc4c(cc3[C@@H](O[C@@H]3O[C@@H]5CO[C@@H](C)O[C@H]5[C@H](O)[C@H]3O)[C@H]3COC(=O)[C@H]23)OCO4)cc(OC)c1O [Etoposide]; conditions: max 10 µM
Summary of the method: as §1

Trametinib = compound: CC(=O)Nc1cccc(-n2c(=O)n(C3CC3)c(=O)c3c(Nc4ccc(I)cc4F)n(C)c(=O)c(C)c32)c1 [Trametinib]; conditions: max 1 µM
Summary of the method: as §1

Carboplatin = compound: C1CC(C1)(C(=O)[O-])C(=O)[O-].N.N.[Pt+2] [Carboplatin]; conditions: max 10 µM
Summary of the method: as §1

AZD7648 = compound: Cc1cc2ncnn2cc1Nc1ncc2c(n1)n(C1CCOCC1)c(=O)n2C [AZD7648]; conditions: max 10 µM
Summary of the method: as §1

Gefitinib = compound: COc1cc2ncnc(Nc3ccc(F)c(Cl)c3)c2cc1OCCCN1CCOCC1 [Gefitinib]; conditions: max 10 µM
Summary of the method: as §1

Olaparib = compound: O=C(c1cc(Cc2n[nH]c(=O)c3ccccc23)ccc1F)N1CCN(C(=O)C2CC2)CC1 [Olaparib]; conditions: max 10 µM
Summary of the method: as §1

Alisertib = compound: COc1cc(Nc2ncc3c(n2)-c2ccc(Cl)cc2C(c2c(F)cccc2OC)=NC3)ccc1C(=O)O [Alisertib]; conditions: max 10 µM
Summary of the method: as §1

AZD1390 = compound: CC(C)n1c(=O)n(C)c2cnc3cc(F)c(-c4ccc(OCCCN5CCCCC5)nc4)cc3c21 [AZD1390]; conditions: max 0.3 µM
Summary of the method: as §1

[1] = compound: O=C(Nc1ccc2[nH]nc(-c3ccncc3)c2c1)[C@@H]1CCN(CC(=O)N2CCN(c3ccc(-c4ncccn4)cc3)CC2)C1; conditions: max 5 µM
Summary of the method: as §1

Lapatinib = compound: CS(=O)(=O)CCNCc1ccc(-c2ccc3ncnc(Nc4ccc(OCc5cccc(F)c5)c(Cl)c4)c3c2)o1 [Lapatinib]; conditions: max 10 µM
Summary of the method: as §1

AZD8186 = compound: C[C@@H](Nc1cc(F)cc(F)c1)c1cc(C(=O)N(C)C)cc2c(=O)cc(N3CCOCC3)oc12 [AZD8186]; conditions: max 10 µM
Summary of the method: as §1

SRA737 = compound: N#Cc1cnc(Nc2cc(NC[C@H]3CNCCO3)c(C(F)(F)F)cn2)cn1 [SRA737]; conditions: max 10 µM
Summary of the method: as §1

Taselisib = compound: Cc1nc(-c2cn3c(n2)-c2ccc(-c4cnn(C(C)(C)C(N)=O)c4)cc2OCC3)n(C(C)C)n1 [Taselisib]; conditions: max 10 µM
Summary of the method: as §1

AZD6738 = compound: C[C@@H]1COCCN1C2=NC(=NC(=C2)C3(CC3)[S@](=N)(=O)C)C4=C5C=CNC5=NC=C4 [AZD6738]; conditions: max 10 µM
Summary of the method: as §1

Dasatinib = compound: CC1=C(C(=CC=C1)Cl)NC(=O)C2=CN=C(S2)NC3=CC(=NC(=N3)C)N4CCN(CC4)CCO [Dasatinib]; conditions: max 2 µM
Summary of the method: as §1

Selumetinib = compound: Cn1cnc2c(F)c(Nc3ccc(Br)cc3Cl)c(C(=O)NOCCO)cc21 [Selumetinib]; conditions: max 10 µM
Summary of the method: as §1

AZD5363 = compound: C1CN(CCC1(C(=O)N[C@@H](CCO)C2=CC=C(C=C2)Cl)N)C3=NC=NC4=C3C=CN4 [AZD5363]; conditions: max 10 µM
Summary of the method: as §1

AZD5153 = compound: COc1nnc2ccc(N3CCC(c4ccc(OCCN5CCN(C)C(=O)[C@H]5C)cc4)CC3)nn12 [AZD5153]; conditions: max 1 µM
Summary of the method: as §1

AZD2811 = compound: CCN(CCO)CCCOc1ccc2c(Nc3cc(CC(=O)Nc4cccc(F)c4)[nH]n3)ncnc2c1 [AZD2811]; conditions: max 1 µM
Summary of the method: as §1

Cell Line	IC50, cell viability 72 h (Paclitaxel)	IC50, cell viability 72 h (AZD4320)	IC50, cell viability 72 h (5-Fluorouracil)	IC50, cell viability 72 h (AZD1775)	IC50, cell viability 72 h (MK-2206)	IC50, cell viability 72 h (AZD0156)	IC50, cell viability 72 h (Doxorubicin)	IC50, cell viability 72 h (AZD5991)	IC50, cell viability 72 h (Savolitinib)	IC50, cell viability 72 h (SN-38)	IC50, cell viability 72 h (Gemcitabine)	IC50, cell viability 72 h (Crizotinib)	IC50, cell viability 72 h (SG3199)	IC50, cell viability 72 h (Venetoclax)	IC50, cell viability 72 h (Palbociclib)	IC50, cell viability 72 h (Prexasertib)	IC50, cell viability 72 h (Etoposide)	IC50, cell viability 72 h (Trametinib)	IC50, cell viability 72 h (Carboplatin)	IC50, cell viability 72 h (AZD7648)	IC50, cell viability 72 h (Gefitinib)	IC50, cell viability 72 h (Olaparib)	IC50, cell viability 72 h (Alisertib)	IC50, cell viability 72 h (AZD1390)	IC50, cell viability 72 h [1]	IC50, cell viability 72 h (Lapatinib)	IC50, cell viability 72 h (AZD8186)	IC50, cell viability 72 h (SRA737)	IC50, cell viability 72 h (Taselisib)	IC50, cell viability 72 h (AZD6738)	IC50, cell viability 72 h (Dasatinib)	IC50, cell viability 72 h (Selumetinib)	IC50, cell viability 72 h (AZD5363)	IC50, cell viability 72 h (AZD5153)	IC50, cell viability 72 h (AZD2811)
MG-63 (Osteosarcoma)	8.23 nM	> 1000 nM	> 20000 nM	2810 nM	> 10000 nM	> 3000 nM	> 1000 nM	> 1000 nM	> 1000 nM	10.8 nM	47.3 nM	7070 nM	> 1 nM	> 1000 nM	> 10000 nM	72.7 nM	> 10000 nM	> 1000 nM	> 10000 nM	> 10000 nM	> 10000 nM	> 10000 nM	2030 nM	> 300 nM	4710 nM	> 10000 nM	6320 nM	> 10000 nM	1770 nM	> 10000 nM	354 nM	> 10000 nM	6890 nM	256 nM	> 1000 nM
NCI-H1435 (Non-Small Cell Lung Carcinoma)	> 3000 nM	621 nM	> 20000 nM	> 3000 nM	> 10000 nM	> 3000 nM	> 1000 nM	> 1000 nM	> 1000 nM	> 300 nM	> 300 nM	> 10000 nM	> 1 nM	> 1000 nM	> 10000 nM	> 1000 nM	> 10000 nM	> 1000 nM	> 10000 nM	> 10000 nM	> 10000 nM	> 10000 nM	> 10000 nM	> 300 nM	> 5000 nM	> 10000 nM	> 10000 nM	> 10000 nM	> 10000 nM	> 10000 nM	> 2000 nM	> 10000 nM	> 10000 nM	> 1000 nM	> 1000 nM
SBC-3 (Small Cell Lung Carcinoma)	3.8 nM	> 1000 nM	4540 nM	822 nM	> 10000 nM	> 3000 nM	71.7 nM	> 1000 nM	> 1000 nM	2.25 nM	14.7 nM	3450 nM	> 1 nM	> 1000 nM	4820 nM	136 nM	313 nM	> 1000 nM	> 10000 nM	> 10000 nM	> 10000 nM	> 10000 nM	421 nM	> 300 nM	> 5000 nM	> 10000 nM	> 10000 nM	> 10000 nM	2580 nM	5850 nM	> 2000 nM	> 10000 nM	> 10000 nM	64.6 nM	636 nM
